Measurements from patent US20140039171A1, “NOVEL MACROLIDE INTERMEDIATE AND NOVEL PRODUCTION PROCESS” (MEIJI SEIKA PHARMA CO., LTD., priority 2011, published 2014).
Values after ≈ are worked out from the molar mass of the structure shown.

Legend:
Test in all cases: in vitro antibacterial activity, broth microdilution method (CLSI M31-A2), MIC
Type in all cases: cell-based
M. haemolytica = tested on: M. haemolytica
Method: (§1) The compound obtained in the present invention was measured for its in vitro antibacterial activity by a broth microdilution method in accordance with a CLSI method (formerly NCCLS method, […]-A2) (Performance Standards for Antimicrobial Disk and Dilution Susceptibility Tests for Bacteria Isolated from Animals; Approved Standard-Second Edition NCCLS […]-A2 Vol. 22 No. 6 2002). A medium composition used in the measurement is shown below. […] The resultant test drug solution was further subjected to two-step dilution with the liquid medium shown below to prepare a test drug solution at each concentration level. The thus prepared test drug solution at each concentration level was dispensed into a 96-well microplate at 100 μL/well, and a test bacterial strain was inoculated at about 5×10^4 CFU/well. After having been cultured in the presence of 5% CO2 gas at 37° C. for 20 to 24 hours, the test bacterial strain was visually observed for the presence or absence of its growth. A minimum drug concentration completely inhibiting the growth of the test bacterial strain was defined as a minimum inhibitory concentration (hereinafter referred to as MIC). […] Saponin was dissolved with purified water. The solution was sterilized and then added to defibrinated horse blood.

P. multocida = tested on: P. multocida
Method: as §1

H. somni = tested on: H. somni
Method: as §1

A. pleuropneumoniae = tested on: A. pleuropneumoniae
Method: as §1

H. parasuis = tested on: H. parasuis
Method: as §1

[1] = P. multocida (bovine) strain 11272R
[2] = P. multocida (bovine) strain 11325-1R
[3] = P. multocida (bovine) strain 11787-24R1
[4] = P. multocida (bovine) strain ATCC43019
[5] = P. multocida (swine) strain 11587-3R
[6] = P. multocida (swine) strain 11745-15R
[7] = P. multocida (swine) strain ATCC43137
[8] = A. pleuropneumoniae strain 10895-2R
[9] = A. pleuropneumoniae strain 11684-7R
[10] = A. pleuropneumoniae strain 11796-1R
[11] = A. pleuropneumoniae strain 11804-2R
[12] = A. pleuropneumoniae strain ATCC27089

Structure (SMILES) | MIC (M. haemolytica; M. haemolytica strain 11443R) | MIC (M. haemolytica; M. haemolytica strain 11467-2R) | MIC (P. multocida; [1]) | MIC (P. multocida; [2]) | MIC (P. multocida; [3]) | MIC (P. multocida; [4]) | MIC (P. multocida; [5]) | MIC (P. multocida; [6]) | MIC (P. multocida; [7]) | MIC (H. somni; H. somni strain 11321R) | MIC (H. somni; H. somni strain 11423-3R) | MIC (A. pleuropneumoniae; [8]) | MIC (A. pleuropneumoniae; [9]) | MIC (A. pleuropneumoniae; [10]) | MIC (A. pleuropneumoniae; [11]) | MIC (A. pleuropneumoniae; [12]) | MIC (H. parasuis; H. parasuis strain 11510-1-2R) | MIC (H. parasuis; H. parasuis strain 11640-1R)
CCC(=O)OC1CC(=O)OC(C)CC(O)C(N(C)CCCc2ccnc3ccccc23)C=CC(OC(C)=O)C(C)CC(CC=O)C(OC2OC(C)C(O)C(N(C)C)C2O)C1OC (stereo not drawn) [(IIIa)] | 2 µg/mL (≈ 2.29 µM) | 4 µg/mL (≈ 4.59 µM) | 4 µg/mL (≈ 4.59 µM) | 2 µg/mL (≈ 2.29 µM) | 4 µg/mL (≈ 4.59 µM) | 4 µg/mL (≈ 4.59 µM) | 4 µg/mL (≈ 4.59 µM) | 4 µg/mL (≈ 4.59 µM) | 2 µg/mL (≈ 2.29 µM) | 0.5 µg/mL (≈ 0.573 µM) | 1 µg/mL (≈ 1.15 µM) | 4 µg/mL (≈ 4.59 µM) | 16 µg/mL (≈ 18.3 µM) | 4 µg/mL (≈ 4.59 µM) | 4 µg/mL (≈ 4.59 µM) | 4 µg/mL (≈ 4.59 µM) | 0.25 µg/mL (≈ 0.287 µM) | 2 µg/mL (≈ 2.29 µM)
CO[C@@H]1C(OC2O[C@@H](C)C(O)C(N(C)C)C2O)[C@@H](CC=O)C[C@@H](C)[C@@H](OC(C)=O)/C=C/[C@@H](N(C)CCCc2ccnc3ccccc23)[C@@H](O)C[C@@H](C)OC(=O)C[C@H]1OC(C)=O (stereo partly drawn) [(IIIb)] | 4 µg/mL (≈ 4.66 µM) | 4 µg/mL (≈ 4.66 µM) | 4 µg/mL (≈ 4.66 µM) | 2 µg/mL (≈ 2.33 µM) | 4 µg/mL (≈ 4.66 µM) | 4 µg/mL (≈ 4.66 µM) | 4 µg/mL (≈ 4.66 µM) | 4 µg/mL (≈ 4.66 µM) | 4 µg/mL (≈ 4.66 µM) | 0.5 µg/mL (≈ 0.583 µM) | 1 µg/mL (≈ 1.17 µM) | 4 µg/mL (≈ 4.66 µM) | 32 µg/mL (≈ 37.3 µM) | 4 µg/mL (≈ 4.66 µM) | 8 µg/mL (≈ 9.32 µM) | 4 µg/mL (≈ 4.66 µM) | 0.5 µg/mL (≈ 0.583 µM) | 4 µg/mL (≈ 4.66 µM)
